Read-outs that look alike come from different tables or passages of the source.
Test: PK after subcutaneous administration of solutions in dogs
Format: in vivo, Beagle dog
Settings: male, beagle, dog, plasma, sc, 12 mg/kg; for concentration at 336 h / concentration at 504 h / concentration at 672 h / concentration at 840 h / concentration at 1008 h / concentration at 1344 h / concentration at 1680 h / concentration at 1 h / concentration at 3 h / concentration at 8 h / concentration at 24 h / concentration at 48 h / concentration at 72 h / concentration at 96 h / concentration at 168 h: SC 12 mg/kg, 400 mg/mL in 15% water/85% PEG 300; for AUC(0-t): male beagle dog, single SC 12 mg/kg, 400 mg/mL in 85% PEG300 and 15% water, mean ± SD
Experimental: Formulations containing the compound of Formula (Ia) were prepared as aqueous solutions or oral formulations and administered subcutaneously to rats, dogs, cynomolgus monkey, and/or rhesus monkey.
A solution of the compound of Formula (Ia) in 10% ethanol, 13% water, and 77% PEG 200 (400 mg/mL) was prepared. The solution was administered subcutaneously to dogs at a dose of 12 mg/kg and rats at a dose of 50 mg/kg and the pharmacokinetic (PK) profile was determined. […] In both species, plasma concentrations of the compound of Formula (Ia) were maintained above the target trough concentration of 20 nM (corresponding to an IQ of 5) for at least 84 days (12 weeks).
A solution of the compound of Formula (Ia) in 15% water and 85.0 PEG 300 (400 mg/mL) was prepared. The solution was administered subcutaneously to male beagle dogs at a dose level of 12 mg/kg and dose volume of […] and the pharmacokinetic (PK) profile was determined.
A solution of the compound of Formula (a) sodium salt in water and 300 (300 mg/mL) was prepared that contained 22.6% water/50% PEG 300/1.1% NaOH/26.3% Formula (Ia). The solution was administered subcutaneously to male beagle dogs at a dose level of 12 mg/kg and dose volume of […] and the pharmacokinetic (PK) profile was determined.
A 300 mg/ml solution of a compound of Formula (Ia) having 9.8 w/w % water, 65.0 w/w % PEG 300, and 25.2 w/w % of the compound of Formula (Ia) was prepared. The solution was administered subcutaneously to rats at a dose of 50 mg/kg and to dogs at a dose of 12 mg/kg and the pharmacokinetic (PK) profile was determined. […] In the rat, plasma concentrations of the compound of Formula (Ia) were maintained above the target trough concentration of 20 nM for at least 168 days (24 weeks). In the dog, plasma concentrations of the compound of Formula (Ia) were maintained above the target trough concentration of 20 nM for at least 84 days (12 weeks).
(§1) A 150 mg/ml solution of a compound of Formula (Ia) having 27.92 w/w % water, 58.04 w/w % PEG 300, 13.47 w/w % of a compound of Formula (Ia), and 1.1 w/w % NaOH was prepared. The solution was administered subcutaneously to rats at a dose of 50 mg/kg and to dogs at a dose of 12 mg/kg and the pharmacokinetic (PK) profile was determined. […] In the rat, plasma concentrations of the compound of Formula (Ia) were maintained above the target trough concentration of 20 nM for at least 126 days (18 weeks). In the dog, plasma concentrations of the compound of Formula (Ia) were maintained above the target trough concentration of 20 nM for at least 56 days (8 weeks).
as §1, with “300” for “150”, “23.2” for “27.92”, “50.0” for “58.04”, “25.7” for “13.47”
A 50 mg/ml solution of a compound of Formula (Ia) having 30.07 w/w % water, 64.40 w/w % PEG 300, 4.68 w/w % of a sodium salt of the compound of Formula (Ia), and 0.85 w/w % poloxamer 188 was prepared. The solution was administered subcutaneously to rats at a dose of 50 mg/kg and to dogs at a dose of 6 mg/kg and the pharmacokinetic (PK) profile was determined. […] In the rat, plasma concentrations of the compound of Formula (Ia) were maintained above the target trough concentration of 20 nM for at least 28 days (4 weeks). In the dog, plasma concentrations of the compound of Formula (Ia) were maintained above the target trough concentration of 20 nM for at least 14 days (2 weeks). […]

CC(C)(C#Cc1ccc(-c2ccc(Cl)c3c(NS(C)(=O)=O)nn(CC(F)(F)F)c23)c([C@H](Cc2cc(F)cc(F)c2)NC(=O)Cn2nc(C(F)(F)F)c3c2C(F)(F)[C@@H]2C[C@H]32)n1)S(C)(=O)=O [Formula (Ia), N—((S)-1-(3-(4-chloro-3-(methylsulfonamido)-1-(2,2,2-trifluoroethyl)-1H-indazol-7-yl)-6-(3-methyl-3-(methylsulfonyl)but-1-yn-1-yl)pyridin-2-yl)-2-(3,5-difluorophenyl)ethyl)-2-((3bS,4aR)-5,5-difluoro-3-(trifluoromethyl)-3b,4,4a,5-tetrahydro-1H-cyclopropa[3,4]cyclopenta[1,2-c]pyrazol-1-yl)acetamide]
concentration at 336 h (dog #1): 135 nM | concentration at 504 h (dog #1): 172 nM | concentration at 672 h (dog #1): 93.1 nM | concentration at 840 h (dog #1): 150 nM | concentration at 1008 h (dog #1): 80.2 nM | concentration at 1344 h (dog #1): 42.7 nM | concentration at 1680 h (dog #1): 69.5 nM | concentration at 1 h (dog #2): 1.2 nM | concentration at 3 h (dog #2): 2.6 nM | concentration at 8 h (dog #2): 15.5 nM | concentration at 24 h (dog #2): 27.8 nM | concentration at 48 h (dog #2): 60.6 nM | concentration at 72 h (dog #2): 37.8 nM | concentration at 96 h (dog #2): 28.8 nM | concentration at 168 h (dog #2): 43.1 nM | concentration at 336 h (dog #2): 64.7 nM | concentration at 504 h (dog #2): 114 nM | concentration at 672 h (dog #2): 81.5 nM | concentration at 840 h (dog #2): 110 nM | concentration at 1008 h (dog #2): 70.7 nM | concentration at 1344 h (dog #2): 41.2 nM | concentration at 1680 h (dog #2): 42.2 nM | concentration at 1 h (dog #3): 1.2 nM | concentration at 3 h (dog #3): 2.3 nM | concentration at 8 h (dog #3): 9.2 nM | concentration at 24 h (dog #3): 16.8 nM | concentration at 48 h (dog #3): 13.2 nM | concentration at 72 h (dog #3): 13.2 nM | concentration at 96 h (dog #3): 10.4 nM | concentration at 168 h (dog #3): 30.8 nM | concentration at 336 h (dog #3): 53 nM | concentration at 504 h (dog #3): 82.9 nM | concentration at 672 h (dog #3): 56.9 nM | concentration at 840 h (dog #3): 107 nM | concentration at 1008 h (dog #3): 54.1 nM | concentration at 1344 h (dog #3): 30.2 nM | concentration at 1680 h (dog #3): 28.5 nM | concentration at 3 h (dog mean, n=3): 2 nM | concentration at 8 h (dog mean, n=3): 11.8 nM | concentration at 24 h (dog mean, n=3): 21.5 nM | concentration at 48 h (dog mean, n=3): 42.8 nM | concentration at 72 h (dog mean, n=3): 37.9 nM | concentration at 96 h (dog mean, n=3): 32.7 nM | concentration at 168 h (dog mean, n=3): 48.6 nM | concentration at 336 h (dog mean, n=3): 84.2 nM | concentration at 504 h (dog mean, n=3): 123 nM | concentration at 672 h (dog mean, n=3): 77.2 nM | concentration at 840 h (dog mean, n=3): 122 nM | concentration at 1008 h (dog mean, n=3): 68.3 nM | concentration at 1344 h (dog mean, n=3): 38 nM | concentration at 1680 h (dog mean, n=3): 46.7 nM | concentration at 1 h (dog mean): 1.2 nM | AUC(0-t) (n=3, read-out: AUC0-24h): 0.304 ± 0.082 µM·h | AUC(0-t) (n=3, read-out: AUC0-48h): 1.08 ± 0.44 µM·h | AUC(0-t) (n=3, read-out: AUC0-72h): 2.04 ± 0.98 µM·h | AUC(0-t) (n=3, read-out: AUC0-168h): 5.82 ± 3.04 µM·h | AUC(0-t) (n=3, read-out: AUC0-672h): 51.2 ± 21 µM·h | AUC(0-t) (n=3, read-out: AUC0-1344h): 102 ± 30 µM·h

— US12594267B2, “Capsid inhibitors for the treatment of HIV” (Gilead Sciences, Inc., priority 2018, dated 2026)
